According to ChEMBL document CHEMBL4602709 (ACS Med Chem Lett, 2020):

Columns and labels:
[1] = molecular target: Voltage-gated inwardly rectifying potassium channel KCNH2 (Homo sapiens, UniProt Q12809); assay: Inhibition of human ERG incubated for 4 hrs by competitive fluorescence tracer binding based assay
[2] = Cytotoxicity against human THLE3 assessed as reduction in cell viability incubated for 72 hrs by Cell Titer Glo 2.0 reagent based assay; details: THLE3 cells
[3] = molecular target: Tyrosine-protein kinase ABL1 (Homo sapiens, UniProt P00519); assay: Inhibition of ABL1 (unknown origin) assessed as residual activity incubated for 5 mins in presence of [gamma-33ATP] by scintillation counting based radiometry assay
[4] = molecular target: Proto-oncogene tyrosine-protein kinase Src (Homo sapiens, UniProt P12931); assay: Inhibition of SRC (unknown origin) assessed as residual activity incubated for 5 mins in presence of [gamma-33ATP] by scintillation counting based radiometry assay
[5] = Inhibition of VEGFR (unknown origin) assessed as residual activity incubated for 5 mins in presence of [gamma-33ATP] by scintillation counting based radiometry assay; set-up: species or system Homo sapiens
[6] = molecular target: T1, Mitogen-activated protein kinase kinase kinase kinase 3 (Homo sapiens, UniProt Q8IVH8); assay: Inhibition of MAP4K3 (unknown origin) assessed as residual activity incubated for 5 mins in presence of [gamma-33ATP] by scintillation counting based radiometry assay
T1 sequence (Q8IVH8 whole entry): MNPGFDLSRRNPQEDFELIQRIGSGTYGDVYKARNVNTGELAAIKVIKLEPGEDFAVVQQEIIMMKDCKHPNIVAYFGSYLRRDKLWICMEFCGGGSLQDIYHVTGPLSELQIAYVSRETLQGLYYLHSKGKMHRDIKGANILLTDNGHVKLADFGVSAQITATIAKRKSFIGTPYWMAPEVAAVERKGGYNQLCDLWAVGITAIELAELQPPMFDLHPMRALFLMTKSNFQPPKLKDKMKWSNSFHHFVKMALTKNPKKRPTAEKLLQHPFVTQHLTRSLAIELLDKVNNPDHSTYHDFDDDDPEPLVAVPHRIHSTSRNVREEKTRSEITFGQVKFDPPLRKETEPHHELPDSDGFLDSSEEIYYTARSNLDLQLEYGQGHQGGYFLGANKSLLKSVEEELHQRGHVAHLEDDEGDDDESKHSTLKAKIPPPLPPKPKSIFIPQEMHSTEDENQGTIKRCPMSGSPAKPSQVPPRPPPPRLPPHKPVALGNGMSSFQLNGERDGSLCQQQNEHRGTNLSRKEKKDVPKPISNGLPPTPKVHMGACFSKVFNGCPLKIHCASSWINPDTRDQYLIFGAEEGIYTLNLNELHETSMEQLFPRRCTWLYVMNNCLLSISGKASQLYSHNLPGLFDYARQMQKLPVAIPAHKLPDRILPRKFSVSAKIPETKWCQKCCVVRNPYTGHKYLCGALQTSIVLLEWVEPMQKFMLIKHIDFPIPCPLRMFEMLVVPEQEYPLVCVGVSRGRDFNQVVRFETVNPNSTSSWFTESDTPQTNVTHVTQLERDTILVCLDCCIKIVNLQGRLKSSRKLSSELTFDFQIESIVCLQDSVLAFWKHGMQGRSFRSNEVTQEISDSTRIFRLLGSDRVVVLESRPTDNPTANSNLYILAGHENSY

Ephrin type-B receptor 3 = molecular target: T2, Ephrin type-B receptor 3 (Homo sapiens, UniProt P54753); assay: Inhibition of EPHB3 (unknown origin) assessed as residual activity incubated for 5 mins in presence of [gamma-33ATP] by scintillation counting based radiometry assay
T2 sequence (P54753 whole entry): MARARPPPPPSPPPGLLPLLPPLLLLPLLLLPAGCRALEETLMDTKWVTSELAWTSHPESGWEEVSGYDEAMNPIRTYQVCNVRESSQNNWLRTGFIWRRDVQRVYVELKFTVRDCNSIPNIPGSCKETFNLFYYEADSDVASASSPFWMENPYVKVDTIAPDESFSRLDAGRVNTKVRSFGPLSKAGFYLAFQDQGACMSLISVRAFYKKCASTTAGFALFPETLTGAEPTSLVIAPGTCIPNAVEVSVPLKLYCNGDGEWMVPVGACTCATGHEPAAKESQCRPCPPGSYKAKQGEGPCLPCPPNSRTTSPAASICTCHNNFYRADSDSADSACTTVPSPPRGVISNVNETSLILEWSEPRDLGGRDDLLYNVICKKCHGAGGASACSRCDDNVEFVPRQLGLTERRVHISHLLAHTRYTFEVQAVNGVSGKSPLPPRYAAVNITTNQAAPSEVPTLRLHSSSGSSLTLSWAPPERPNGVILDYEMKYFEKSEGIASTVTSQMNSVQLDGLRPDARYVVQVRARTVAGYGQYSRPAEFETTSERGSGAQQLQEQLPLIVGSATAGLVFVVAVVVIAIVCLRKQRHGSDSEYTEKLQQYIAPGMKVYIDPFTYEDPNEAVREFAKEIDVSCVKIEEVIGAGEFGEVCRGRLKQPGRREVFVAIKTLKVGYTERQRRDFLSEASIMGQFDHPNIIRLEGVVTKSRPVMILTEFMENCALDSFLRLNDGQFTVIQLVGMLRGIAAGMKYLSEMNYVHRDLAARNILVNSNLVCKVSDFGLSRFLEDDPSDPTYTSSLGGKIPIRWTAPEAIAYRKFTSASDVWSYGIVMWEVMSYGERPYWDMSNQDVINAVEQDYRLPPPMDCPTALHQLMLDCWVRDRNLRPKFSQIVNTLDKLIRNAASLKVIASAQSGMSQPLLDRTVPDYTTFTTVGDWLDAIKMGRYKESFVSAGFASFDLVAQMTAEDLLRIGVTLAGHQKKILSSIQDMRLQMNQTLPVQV

Tyrosine-protein kinase ABL1, sequence (P00519 whole entry): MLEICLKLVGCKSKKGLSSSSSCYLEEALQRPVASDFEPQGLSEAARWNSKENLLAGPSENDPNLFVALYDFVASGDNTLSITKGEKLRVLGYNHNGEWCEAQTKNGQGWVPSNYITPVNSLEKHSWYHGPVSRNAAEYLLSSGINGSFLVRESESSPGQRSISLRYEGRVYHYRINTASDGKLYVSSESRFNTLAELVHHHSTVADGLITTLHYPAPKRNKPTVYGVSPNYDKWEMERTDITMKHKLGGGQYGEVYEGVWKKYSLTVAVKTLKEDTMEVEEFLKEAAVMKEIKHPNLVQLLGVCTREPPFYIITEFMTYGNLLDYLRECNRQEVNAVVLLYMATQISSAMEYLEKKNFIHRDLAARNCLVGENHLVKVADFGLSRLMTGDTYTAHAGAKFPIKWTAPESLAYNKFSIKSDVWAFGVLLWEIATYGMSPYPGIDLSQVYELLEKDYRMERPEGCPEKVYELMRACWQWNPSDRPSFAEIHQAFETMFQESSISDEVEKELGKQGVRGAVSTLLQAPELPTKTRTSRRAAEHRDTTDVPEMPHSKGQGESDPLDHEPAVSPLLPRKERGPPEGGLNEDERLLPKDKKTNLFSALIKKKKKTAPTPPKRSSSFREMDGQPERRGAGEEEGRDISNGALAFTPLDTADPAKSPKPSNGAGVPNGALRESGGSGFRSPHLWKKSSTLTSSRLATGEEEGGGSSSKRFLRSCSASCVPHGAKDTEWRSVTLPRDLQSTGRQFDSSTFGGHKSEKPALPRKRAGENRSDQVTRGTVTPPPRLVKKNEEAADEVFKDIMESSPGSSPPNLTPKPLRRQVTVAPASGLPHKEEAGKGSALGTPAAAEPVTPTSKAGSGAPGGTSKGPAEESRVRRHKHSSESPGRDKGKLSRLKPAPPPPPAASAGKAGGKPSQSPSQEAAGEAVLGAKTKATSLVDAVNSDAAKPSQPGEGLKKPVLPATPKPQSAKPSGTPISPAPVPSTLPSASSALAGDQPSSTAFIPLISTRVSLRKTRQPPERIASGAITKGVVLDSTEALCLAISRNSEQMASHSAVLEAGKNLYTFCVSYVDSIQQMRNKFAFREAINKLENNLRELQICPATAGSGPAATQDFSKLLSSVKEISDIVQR
Proto-oncogene tyrosine-protein kinase Src, sequence (P12931 2-536 limits assumed): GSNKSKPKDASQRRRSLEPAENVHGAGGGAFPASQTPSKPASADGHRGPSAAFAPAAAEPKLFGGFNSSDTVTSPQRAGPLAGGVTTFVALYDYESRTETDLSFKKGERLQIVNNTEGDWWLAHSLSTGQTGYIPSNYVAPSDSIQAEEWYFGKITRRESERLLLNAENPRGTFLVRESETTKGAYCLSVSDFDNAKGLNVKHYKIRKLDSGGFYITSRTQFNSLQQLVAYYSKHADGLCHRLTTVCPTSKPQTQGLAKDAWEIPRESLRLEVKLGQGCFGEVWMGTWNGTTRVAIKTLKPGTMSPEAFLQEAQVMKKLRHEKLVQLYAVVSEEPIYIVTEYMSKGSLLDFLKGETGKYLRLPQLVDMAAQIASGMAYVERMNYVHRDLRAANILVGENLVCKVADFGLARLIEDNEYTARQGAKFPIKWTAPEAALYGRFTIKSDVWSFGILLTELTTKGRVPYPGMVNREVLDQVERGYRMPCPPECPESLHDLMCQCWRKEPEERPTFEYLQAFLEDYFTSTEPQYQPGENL
Voltage-gated inwardly rectifying potassium channel KCNH2, sequence (Q12809 whole entry): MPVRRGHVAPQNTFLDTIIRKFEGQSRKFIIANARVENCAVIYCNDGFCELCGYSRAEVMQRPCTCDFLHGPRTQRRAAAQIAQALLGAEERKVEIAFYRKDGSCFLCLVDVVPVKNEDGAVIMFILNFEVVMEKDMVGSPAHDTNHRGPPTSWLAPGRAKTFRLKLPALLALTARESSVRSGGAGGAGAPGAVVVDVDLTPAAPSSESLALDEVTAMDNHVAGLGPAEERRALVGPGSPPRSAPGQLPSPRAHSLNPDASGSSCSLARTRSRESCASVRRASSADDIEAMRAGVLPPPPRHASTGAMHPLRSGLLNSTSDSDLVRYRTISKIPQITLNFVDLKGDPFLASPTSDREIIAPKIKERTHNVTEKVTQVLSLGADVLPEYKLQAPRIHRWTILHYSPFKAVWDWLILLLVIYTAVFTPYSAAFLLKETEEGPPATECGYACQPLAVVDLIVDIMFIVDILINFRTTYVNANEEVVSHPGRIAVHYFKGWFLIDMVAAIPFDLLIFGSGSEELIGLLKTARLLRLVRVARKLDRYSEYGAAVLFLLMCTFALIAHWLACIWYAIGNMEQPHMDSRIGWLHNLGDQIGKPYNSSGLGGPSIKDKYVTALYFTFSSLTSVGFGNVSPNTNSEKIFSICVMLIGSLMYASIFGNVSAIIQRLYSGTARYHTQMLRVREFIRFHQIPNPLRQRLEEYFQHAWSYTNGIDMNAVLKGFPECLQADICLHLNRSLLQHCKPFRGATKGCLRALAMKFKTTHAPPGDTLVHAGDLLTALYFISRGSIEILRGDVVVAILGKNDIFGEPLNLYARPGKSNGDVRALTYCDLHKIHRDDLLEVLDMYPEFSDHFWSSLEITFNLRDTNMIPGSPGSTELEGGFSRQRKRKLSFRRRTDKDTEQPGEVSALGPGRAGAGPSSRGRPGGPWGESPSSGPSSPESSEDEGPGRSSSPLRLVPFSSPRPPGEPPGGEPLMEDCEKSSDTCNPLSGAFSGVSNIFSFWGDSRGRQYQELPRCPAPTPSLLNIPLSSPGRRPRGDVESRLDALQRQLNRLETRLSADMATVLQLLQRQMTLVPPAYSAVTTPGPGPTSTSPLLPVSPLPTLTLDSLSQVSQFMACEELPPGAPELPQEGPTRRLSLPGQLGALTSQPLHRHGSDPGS

- IC50 [3]: 1.3 nM
- IC50 [4]: 431 nM
- IC50 [5]: 44.8 nM
- IC50 [6]: 240 nM
- IC50 (Ephrin type-B receptor 3): 19.5 nM
SMILES: Cc1ccc(C(=O)Nc2ccc(CN3Cc4cn[nH]c4C3)c(Cl)c2)cc1C#Cc1cnc2cccnn12
- IC50 [1]: 12100 nM
- CC50 at 72 h [2]: > 50000 nM
